Experimental data from US10918106B2, “Methods for hydraulic enhancement of crops” (Sound Agriculture Company, priority 2015, dated 2021).
Entries after “also recorded” stand apart in the source; their conditions may differ.

Key:
Format in all cases: in vivo
tested plant = assay: Hydraulic enhancement test of plant growth regulators (gibberellins, cytokinins); settings: for hydraulic enhancement by gibberellins: FIG. 16
Protocol: Specific combinations of plant growth regulators (PGRs) were used for hydraulic enhancement and increased harvest yield of crops. PGRs were tested to be co-applied with strigolactones and/or AB compounds (e.g., AB01). PGRs were also tested in the absence of strigolactones and/or AB compounds. […] PGRs were tested as a seed treatment, soil drench, granule formulation, or foliar spray. […] In another experiment, the effect of hydraulic enhancement was also tested with cytokinins, including kinetin, zeatin, 6-benzylaminopurine (6-BAP), diphenylurea, thidiazuron, and their chemical derivatives and analogs.

plant = assay: Hydraulic enhancement test of ABA biosynthesis inhibitor fluridone; settings: fluridone 1 μg (FIG. 15)
Protocol: Using this discovery, it could be reasoned that addition of inhibitors of ABA biosynthesis would result in increased hydraulic enhancement. In another experiment, fluridone was tested for its effect in hydraulic enhancement. Fluridone is an inhibitor of the phytoene destaturase, which is an upstream step in the synthesis of abscisic acid.

[1] = tested on: corn (Zea mays) seedlings; assay: ex vivo hydraulic enhancement (xVHS) transpiration assay
Protocol: In this assay with corn (Zea mays), seedlings were grown in defined potting soil (in this case, Sunshine Mix #4) for 2 weeks until they were approximately 15 to 20 centimeters tall. Seedlings were then cut at the base of the stem and placed in individual tubes with defined volume of water (FIG. 4A). Hydraulic enhancing chemistry (for example, AB01) was present in the defined volume of water at various concentrations. Excised seedlings were placed in a defined temperature and humidity environment under continuous illumination, and water use was measured after 12, 18, or 24 hours. Using this assay, chemistry or other inputs that induce hydraulic enhancement can be tested and discovered. In this assay, 100 ng of AB01 in acetone was added to 2 week old corn seedlings and water use was monitored over 24 hours.

| Compound | hydraulic enhancement by gibberellins (tested plant) | other results |
| --- | --- | --- |
| C=C1C[C@]23C[C@H]1CC[C@H]2[C@@]12CC[C@H](O)[C@@](C)(C(=O)O1)[C@H]2[C@@H]3C(=O)O [GA4] | hydraulic enhancement was elicited | – |
| C=C1C[C@]23C[C@@]1(O)CC[C@H]2[C@@]12CC[C@H](O)[C@@](C)(C(=O)O1)[C@H]2[C@@H]3C(=O)O [GA1] | hydraulic enhancement was elicited | – |
| CC1CC23CC1CCC2C1(C)CCCC(C)(C)C1C3C (stereo not drawn) [ent-gibberellane] | hydraulic enhancement was elicited | – |
| fluridone | – | effect on hydraulic enhancement (plant): improved hydraulic enhancement; also recorded: increase hydraulic enhancement |
| c1ccc(CNc2ncnc3nc[nH]c23)cc1 [6-BAP, 6-benzylaminopurine] | – | hydraulic enhancement by cytokinin (tested plant; 1 μg (FIG. 17)): improved hydraulic enhancement; also recorded: elicit hydraulic enhancement |
| C=C1C[C@]23C[C@@]1(O)CC[C@H]2[C@@]12C=C[C@H](O)[C@@](C)(C(=O)O1)[C@H]2[C@@H]3C(=O)O [gibberellic acid] | improved hydraulic enhancement | – |
| CC1=CC(Oc2c(C)occc2=O)OC1=O (stereo not drawn) [AB09, 2-methyl-3-((4-methyl-5-oxo-2,5-dihydrofuran-2-yl)oxy)-4H-pyran-4-one] | – | increase in transpiration ([1]; 10Ong added to the xVHS assay (FIG. 12)): 40%; ability to induce hydraulic enhancement ([1]; screen of AB compounds/strigolactones (FIG. 12)): able to induce hydraulic enhancement; also recorded: resulted in hydraulic enhancement of crop plants |
| C=C1C[C@@]23CC[C@@H]4C(C)(C)CCC[C@@]4(C)[C@@H]2CC[C@@H]1C3 [ent-kaurene] | hydraulic enhancement was elicited | – |
| C=C1C[C@]23C[C@H]1CC[C@H]2[C@@]12C=C[C@H](O)[C@@](C)(C(=O)O1)[C@H]2[C@@H]3C(=O)O [GA7] | hydraulic enhancement was elicited | – |
| C=C1C[C@]23C[C@@]1(O)CC[C@H]2[C@@]12C=C[C@H](O)[C@@](C)(C(=O)O1)[C@H]2[C@@H]3C(=O)O [GA3] | hydraulic enhancement was elicited | – |
| CC1=CC(=O)CC(C)(C)[C@@]1(O)/C=C/C(C)=C\C(=O)O [abscisic acid] | – | effect on hydraulic enhancement in the xVHS assay ([1]; addition of abscisic acid (FIG. 14)): inhibited hydraulic enhancement; also recorded: reduce the hydraulic enhancement |
